According to patent US20220193072A1, “METHODS OF TREATING BREAST CANCER WITH TETRAHYDRONAPHTHALENE DERIVATIVES AS ESTROGEN RECEPTOR DEGRADER” (Arvinas Operations, Inc., priority 2020, published 2022):

Legend:
[1] = system: MCF7 cells; assay: Luminescence-based MCF7 cell proliferation assay, dose-response matrix; conditions: 5 days (120 hours)
Procedure: MCF7 cells were seeded at a density of 2×10^4 cells in 200 μL of media per well in 2 technical replicate, 96-well black, clear-bottom plates and incubated overnight at 37° C. in a 5% CO2 incubator. […] DMSO was used as the vehicle control. The plates were then incubated for 5 days at 37° C. in a 5% CO2 incubator.
The plates were equilibrated to room temperature for approximately 30 minutes. 50 μL of Cell-Titer Glo (Promega) was added to all wells of the plates, covered with aluminum foil and shaken gently by hand for less than 1 minute. The plates were then incubated for 10 minutes at room temperature. Luminescence was recorded using Envision Multi Label Reader. To assess cell viability, luminescence values for drug-treated wells were normalized to average luminescence of vehicle (DMSO) wells to obtain percent viability relative to control cells. The data were analyzed with the Combenefit software.

[2] = system: MCF7 xenograft; assay: MCF7 orthotopic xenograft, combination with PI3K inhibitor alpelisib; type: in vivo, NOD/SCID mice
Procedure: NOD/SCID female mice (Charles River, 6-7 weeks old upon arrival) were implanted with 17b-estradiol 0.72 mg 90-day pellets. The next day, each mouse was implanted with 5×10^6 MCF7 cells/[…] in the axial mammary fat pad. Compound administration was initiated once the tumors reached 175-200 mm^3. Diet was supplemented with peanut butter to help maintain body weights. Dosing holidays occurred on days 6, 7, 8 and 9 due to body weight loss in some animals in study arms 3 and 4. […] (FIG. 31 and Table 15).
Dosing holidays occurred on days 6, 7, 8 and 9. Error bars represent standard deviation.
The ratio of Tween 80 to PEG-400 is 0.02 g Tween 80 to 1 ml PEG-400. PEG-400 is added to a pre-aliquoted volume of Tween 80. • For alpelisib: 1% carboxymethylcellulose (CMC), 0.5% Tween 80/DI water (‘CMC/Tween’) Sampling: tumors were measured twice weekly. Terminal sacrifice was ˜18 hr after last dose. Tumor volume calculation: Tumor Volume=(width×width×length)/2, where all measurements are in mm and the tumor volume is in mm^3. Tumor Growth Inhibition (TGI) calculation: TGI (%)

[3] = target: T1, ERα (ESR1 Y537S) (Homo sapiens, UniProt P03372, Y537S); assay: Tumor ERα levels in ESR1 (Y537S) PDX model; type: in vivo; conditions: for reduction of tumor ERα levels: ESR1 (Y537S) PDX, 28 days
T1 construct: a hormone-independent patient-derived xenograft model; from tissue; host or cells: ESR1 (Y537S) patient-derived xenograft tumour grown in mice
T1 sequence (P03372 1-595 Y537S): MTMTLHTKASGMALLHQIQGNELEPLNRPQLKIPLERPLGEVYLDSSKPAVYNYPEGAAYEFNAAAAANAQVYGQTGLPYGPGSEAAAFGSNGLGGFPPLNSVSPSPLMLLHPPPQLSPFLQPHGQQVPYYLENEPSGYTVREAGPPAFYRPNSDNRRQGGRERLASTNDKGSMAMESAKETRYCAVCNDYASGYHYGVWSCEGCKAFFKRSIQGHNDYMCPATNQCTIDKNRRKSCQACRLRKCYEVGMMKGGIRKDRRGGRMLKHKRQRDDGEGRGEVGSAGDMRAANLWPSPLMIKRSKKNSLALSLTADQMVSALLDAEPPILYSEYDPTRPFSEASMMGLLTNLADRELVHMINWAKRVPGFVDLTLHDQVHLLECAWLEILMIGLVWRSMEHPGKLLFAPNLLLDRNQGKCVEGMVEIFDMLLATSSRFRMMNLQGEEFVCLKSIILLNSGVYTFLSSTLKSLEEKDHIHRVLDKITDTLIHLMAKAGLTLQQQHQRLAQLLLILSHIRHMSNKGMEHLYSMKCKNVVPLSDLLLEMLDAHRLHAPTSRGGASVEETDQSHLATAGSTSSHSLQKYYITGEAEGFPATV

[4] = system: ESR1 (Y537S) PDX; assay: ESR1 (Y537S) PDX model tumor growth inhibition; type: in vivo; conditions: for tumor growth inhibition (TGI): ESR1 (Y537S) PDX, 28 days
[5] = Compound (I-c) 30 mg/kg oral QD x 19

## O=C1CC[C@H](N2Cc3cc(N4CCN(CC5CCN(c6ccc([C@@H]7c8ccc(O)cc8CC[C@@H]7c7ccccc7)cc6)CC5)CC4)ccc3C2=O)C(=O)N1 [Compound (I-c), (3S)-3-[5-[4-[[1-[4-[(1R,2S)-6-hydroxy-2-phenyl-tetralin-1-yl]phenyl]-4-piperidyl]methyl]piperazin-1-yl]-1-oxo-isoindolin-2-yl]piperidine-2,6-dione]
[1]
  MCF7 cell proliferation, single agent: dose-dependent decrease
[2]; [5]
  Day 19 Tumor Volume (mean ± SD): 207 ± 62 mm^3
  TGI (% vehicle): 95 % vehicle
[2]; single agent 30 mg/kg oral once daily, 19 days, dosing holidays days 6-9
  tumor growth inhibition (TGI): 95%
[3]; 10 mg/kg oral once daily
  reduction of tumor ERα levels: 79%
[3]; 30 mg/kg oral once daily
  reduction of tumor ERα levels: 88%
[3]; ESR1 Y537S PDX, 10 mg/kg
  mutant ER protein levels: significantly reduced
[4]; 10 mg/kg oral once daily
  tumor growth inhibition (TGI): 99%
[4]; 30 mg/kg oral once daily
  tumor growth inhibition (TGI): 106%
[4]; ESR1 Y537S hormone-independent PDX, 10 mg/kg
  tumor growth: completely inhibited growth
